The record followed here is the supplement of paper PMC12137928.

Assay [1] concerns HCT116. Kind of assay: efficacy (maximum % inhibition of viability vs DMSO); higher = more cytotoxic. Conditions: 72 h. A digest of the protocol:
(§1)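 HCT116 cells were plated at 250 per well in 1536-well plates and allowed 5 h to attach. CellTiter-Glo luminescence was normalized to vehicle as 0% and positive control as -100%, followed by pattern correction. Four-parameter Hill fits provided IC50 and maximal efficacy.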

Assay [2] deals with HCT116. The conditions noted are these: 72 h. A digest of the protocol:
as §1

Counter-ions that a name gives are not always drawn. A value given as a limit tells only on which side of the number the result lay.

`O=c1[nH]c(=O)n([C@H]2C[C@H](O)[C@@H](CO)O2)cc1F` [Floxuridine]: the efficacy was found to be 49.1% in assay [1] (ICRF193 0 nM) and 43% in assay [1] (ICRF193 200 nM). The IC50 cell viability in assay [2] (ICRF193 0 nM) is 2.91 µM; in assay [2] (ICRF193 200 nM), 1.16 µM.

For `COc1ccc2c(c1)N(C[C@H](C)CN(C)C)c1ccccc1S2` [Methotrimeprazine maleat salt], the efficacy in assay [1] (ICRF193 200 nM) is 50.8%. Also, the IC50 cell viability was over 45.8 µM in assay [2] (ICRF193 0 nM) and 23.1 µM in assay [2] (ICRF193 200 nM).

`Cc1ccc2nc(N)[nH]c(=O)c2c1Sc1ccncc1` [NOLATREXED HCL] had an efficacy in assay [1] (ICRF193 200 nM) of 45.1%. For the same compound, the results for the IC50 cell viability in assay [2] (ICRF193 0 nM) and in assay [2] (ICRF193 200 nM) were over 45.8 µM and 20.6 µM, respectively.

For the compound `CCCN(CCC)C(=O)C(CCC(=O)OCCCN1CCN(CCOC(=O)Cc2c(C)n(C(=O)c3ccc(Cl)cc3)c3ccc(OC)cc23)CC1)NC(=O)c1ccccc1` (stereo unspecified) [Proglumetacin], in assay [1] (ICRF193 200 nM), the efficacy was 48.5%. For the same compound, the IC50 cell viability in assay [2] (ICRF193 0 nM) is over 45.8 µM; in assay [2] (ICRF193 200 nM), 20.6 µM.

Consider `CCN1CCN(Cc2ccc(Nc3ncc(F)c(-c4cc(F)c5nc(C)n(C(C)C)c5c4)n3)nc2)CC1` [Abemaciclib], for which the efficacy in assay [1] (ICRF193 0 nM) is 116%; in assay [1] (ICRF193 200 nM), 112%. The values for the IC50 cell viability in assay [2] (ICRF193 0 nM) and in assay [2] (ICRF193 200 nM) were 16.4 µM and 18.3 µM, respectively.

As for `COC(=O)C1=C(C)NC(C)=C(C(=O)OC)C1c1ccccc1[N+](=O)[O-]` [Nifedipine], the efficacy in assay [1] (ICRF193 0 nM) is 94.7%; in assay [1] (ICRF193 200 nM), 90.5%. The IC50 cell viability in assay [2] (ICRF193 0 nM) and in assay [2] (ICRF193 200 nM) was 23.1 µM each time.

In the case of `C=CC[C@@H]1/C=C(\C)C[C@H](C)C[C@H](OC)[C@H]2O[C@@](O)(C(=O)C(=O)N3CCCC[C@H]3C(=O)O[C@H](/C(C)=C/[C@@H]3CC[C@@H](O)[C@H](OC)C3)[C@H](C)[C@@H](O)CC1=O)[C@H](C)C[C@@H]2OC` [FK-506], the efficacy in assay [1] (ICRF193 0 nM) stood at 78.2%; in assay [1] (ICRF193 200 nM), 45.5%. The figures for the IC50 cell viability in assay [2] (ICRF193 0 nM) and in assay [2] (ICRF193 200 nM) were 6.51 µM and 4.61 µM, respectively.

For `CO[C@H]1C[C@H](O[C@@H]2/C(C)=C/C[C@@H]3C[C@@H](C[C@]4(CC[C@H](C)[C@@H](C5CCCCC5)O4)O3)OC(=O)[C@@H]3C=C(C)/C(=N/O)[C@H]4OC/C(=C\C=C\[C@@H]2C)[C@]43O)O[C@@H](C)[C@@H]1O` [SELAMECTIN], the efficacy in assay [1] (ICRF193 0 nM) amounted to 99.6%; in assay [1] (ICRF193 200 nM), 109%. Besides, the values for the IC50 cell viability in assay [2] (ICRF193 0 nM) and in assay [2] (ICRF193 200 nM) were 29.1 µM and 20.6 µM, respectively.

For `COC(=O)Nc1nc2cc([S+]([O-])c3ccccc3)ccc2[nH]1` (stereo unspecified) [Oxfendazole], the efficacy in assay [1] (ICRF193 0 nM) is 44.2%; in assay [1] (ICRF193 200 nM), 49.7%. The IC50 cell viability in assay [2] (ICRF193 0 nM) stood at 14.6 µM; in assay [2] (ICRF193 200 nM), 2.06 µM.

Consider `Cn1cnc([N+](=O)[O-])c1Sc1ncnc2[nH]cnc12` [Azathioprine], for which the efficacy in assay [1] (ICRF193 0 nM) was 77.4%; in assay [1] (ICRF193 200 nM), 85.9%. The IC50 cell viability in assay [2] (ICRF193 0 nM) stood at 2.91 µM; in assay [2] (ICRF193 200 nM), 3.66 µM.

As for `C=C(C)[C@@H]1CCC(C)=C[C@H]1c1c(O)cc(CCCCC)cc1O` [Cannabidiol], the efficacy in assay [1] (ICRF193 0 nM) was determined as 52.9%; in assay [1] (ICRF193 200 nM), 49.4%. For the same compound, the IC50 cell viability in assay [2] (ICRF193 0 nM) turned out to be 20.6 µM; in assay [2] (ICRF193 200 nM) it was 23.1 µM.

`OCCN1CCN(CCCN2c3ccccc3Sc3ccc(C(F)(F)F)cc32)CC1` [Fluphenazine hydrochloride]: the efficacy turned out to be 110% in assay [1] (ICRF193 0 nM) and 104% in assay [1] (ICRF193 200 nM). The IC50 cell viability in assay [2] (ICRF193 0 nM) worked out at 29.1 µM; in assay [2] (ICRF193 200 nM), 20.6 µM.

Turning to `C/C=C(/C(=C/C)c1ccc(O)cc1)c1ccc(O)cc1` [Dienestrol], the efficacy in assay [1] (ICRF193 0 nM) was determined as 74.2%. The IC50 cell viability in assay [2] (ICRF193 0 nM) was 29.1 µM; in assay [2] (ICRF193 200 nM), over 45.8 µM.

In the case of `C=C1/C(=C\C=C2/CCC[C@]3(C)[C@@H]([C@H](C)CCCC(O)(C(F)(F)F)C(F)(F)F)CC[C@@H]23)C[C@@H](O)C[C@@H]1O` [Falecalcitriol], the figures for the efficacy in assay [1] (ICRF193 0 nM) and in assay [1] (ICRF193 200 nM) were 68.9% and 96.5%, respectively. The IC50 cell viability was 29.1 µM in assay [2] (ICRF193 0 nM) and 23.1 µM in assay [2] (ICRF193 200 nM).

In assay [1] (ICRF193 200 nM), `Oc1cccc(-c2c3nc(c(-c4cccc(O)c4)c4ccc([nH]4)c(-c4cccc(O)c4)c4nc(c(-c5cccc(O)c5)c5ccc2[nH]5)CC4)C=C3)c1` [Temoporfin] came in with an efficacy of 46%. The figures for the IC50 cell viability in assay [2] (ICRF193 0 nM) and in assay [2] (ICRF193 200 nM) were over 45.8 µM and 25.9 µM, respectively.

With `CN(C)c1ccc(C(=C2C=CC(=[N+](C)C)C=C2)c2c(O)c(S(=O)(=O)[O-])cc3cc(S(=O)(=O)O)ccc23)cc1` [Green S], the efficacy in assay [1] (ICRF193 0 nM) worked out at 93.6%; in assay [1] (ICRF193 200 nM) it was 79.5%. Further, the IC50 cell viability amounted to 18.3 µM in assay [2] (ICRF193 0 nM) and 10.3 µM in assay [2] (ICRF193 200 nM).

As for `COc1ccc(CCN2CCC(Nc3nc4ccccc4n3Cc3ccc(F)cc3)CC2)cc1` [Astemizole], the efficacy in assay [1] (ICRF193 0 nM) amounted to 108%; in assay [1] (ICRF193 200 nM), 102%. Moreover, the IC50 cell viability stood at 20.6 µM in assay [2] (ICRF193 0 nM) and 16.4 µM in assay [2] (ICRF193 200 nM).

In the case of `[O-][n+]1ccccc1SSc1cccc[n+]1[O-]` [Dipyrithione], the results for the efficacy in assay [1] (ICRF193 0 nM) and in assay [1] (ICRF193 200 nM) were 83.9% and 74.7%, respectively. Also, the IC50 cell viability turned out to be 1.42 µM in assay [2] (ICRF193 0 nM) and 1.27 µM in assay [2] (ICRF193 200 nM).

On to `CCN(CC)Cc1cc(Nc2ccnc3cc(Cl)ccc23)ccc1O` [Amodiaquin dihydrochloride dihydrate], for which the efficacy in assay [1] (ICRF193 0 nM) was determined as 85.2%; in assay [1] (ICRF193 200 nM) it was 101%. The IC50 cell viability in assay [2] (ICRF193 0 nM) and in assay [2] (ICRF193 200 nM) was 18.3 µM in each case.

Regarding `C[C@@H]1C[C@H]2[C@@H]3C[C@H](F)C4=CC(=O)C=C[C@]4(C)[C@@]3(F)[C@@H](O)C[C@]2(C)[C@@]1(OC(=O)c1ccco1)C(=O)SCF` [Fluticasone furoate], the efficacy in assay [1] (ICRF193 0 nM) came to 83.8%. Also, the IC50 cell viability in assay [2] (ICRF193 0 nM) is 29.1 µM; in assay [2] (ICRF193 200 nM), over 45.8 µM.

With `COc1c(-c2ccc3cc(NS(C)(=O)=O)ccc3c2)cc(-n2ccc(=O)[nH]c2=O)cc1C(C)(C)C` [ABT-333], the efficacy was 94.6% in assay [1] (ICRF193 0 nM) and 102% in assay [1] (ICRF193 200 nM). The IC50 cell viability in assay [2] (ICRF193 0 nM) turned out to be 20.6 µM; in assay [2] (ICRF193 200 nM), 25.9 µM.

In turn, `O=C1C(O)=C([C@H]2CC[C@H](c3ccc(Cl)cc3)CC2)C(=O)c2ccccc21` [Atovaquone] had an efficacy in assay [1] (ICRF193 200 nM) of 54.1%. The IC50 cell viability in assay [2] (ICRF193 0 nM) was over 45.8 µM; in assay [2] (ICRF193 200 nM) it was 18.3 µM.
